Target: T1, μ opiate receptor (MOR) (Rattus norvegicus, UniProt P33535)
T1 construct: from tissue; host or cells: striatal tissue (membrane preparation)
Assay: MOR agonist activity, [35S]GTPγS binding assay using striatal membranes
Format: biochemical
Details: for [35S]GTPγS binding to Gαo, FLNA-binding compound as agonist 0.1 μM: 0.1 μM compound; for [35S]GTPγS binding to Gαo, FLNA-binding compound as agonist 0.1 μM / [35S]GTPγS binding to Gαo, FLNA-binding compound as agonist 1 μM: striatal membranes; for [35S]GTPγS binding to Gαo, FLNA-binding compound as agonist 1 μM + BFNA: 1 μM compound + 1 μM β-funaltrexamine; for [35S]GTPγS binding to Gαo, FLNA-binding compound as agonist 1 μM: 1 μM compound; for % DAMGO + BFNA: relative to DAMGO + BFNA; for % DAMGO (0.1 μM) / % DAMGO (1 μM): relative to DAMGO
Method: To assess the μ opiate receptor (MOR) agonist activity of positive compounds from the FLNA screening, compounds were tested in a [^35S]GTPγS binding assay using striatal membranes.
Striatal tissue was homogenized in 10 volumes of ice cold 25 mM HEPES buffer, pH 7.4, which contained 1 mM EGTA, 100 mM sucrose, 50 μg/ml leupeptin, 0.04 mM PMSF, 2 μg/ml soybean trypsin inhibitor and 0.2% 2-mercaptoethanol. The homogenates were centrifuged at 800×g for 5 minutes and the supernatants were centrifuged at 49,000×g for 20 minutes. The resulting pellets were suspended in 10 volume of reaction buffer, which contained 25 mM HEPES, pH 7.5, 100 mM NaCl, 50 μg/ml leupeptin, 2 μg/ml soybean trypsin inhibitor, 0.04 mM PMSF and 0.02% […].
The resultant striatal membrane preparation (200 μg) was admixed and maintained (incubated) at 30° C. for 5 minutes in reaction buffer as above that additionally contained 1 mM MgCl2 and 0.5 nM [^35S]GTPγS (0.1 μCi/assay, PerkinElmer Life and Analytical Sciences) in a total volume of 250 μl and continued for 5 minutes in the absence or presence of 0.1-10 μM of an assayed compound of interest. The reaction was terminated by dilution with 750 μl of ice-cold reaction buffer that contained 20 mM MgCl2 and 1 mM EGTA and immediate centrifugation at 16,000×g for 5 minutes.
The resulting pellet was solubilized by sonicating for 10 seconds in 0.5 ml of immunoprecipitation buffer containing 0.5% digitonin, 0.2% sodium cholate and 0.5% NP-40. Normal rabbit serum (1 μl) was added to 1 ml of lysate and incubated at 25° C. for 30 minutes. Nonspecific immune complexes were removed by incubation with 25 μl of protein A/G-conjugated agarose beads at 25° C. for 30 minutes followed by centrifugation at 5,000×g at 4° C. for 5 minutes. The supernatant was divided and separately incubated at 25° C. for 30 minutes with antibodies raised against Gao proteins (1:1,000 dilutions).
The immunocomplexes so formed were collected by incubation at 25° C. for 30 minutes with 40 μl of agarose-conjugated protein A/G beads and centrifugation at 5,000×g at 4° C. for 5 minutes. The pellet was washed and suspended in buffer containing 50 mM Tris-HCl, pH 8.0, and 1% NP-40. The radioactivity in the suspension was determined by liquid scintillation spectrometry. […] DAMGO (H-Tyr-D-Ala-Gly-N-MePhe-Gly-OH; 1 or 10 μM) was used as a positive control.

T1 sequence (P33535 whole entry): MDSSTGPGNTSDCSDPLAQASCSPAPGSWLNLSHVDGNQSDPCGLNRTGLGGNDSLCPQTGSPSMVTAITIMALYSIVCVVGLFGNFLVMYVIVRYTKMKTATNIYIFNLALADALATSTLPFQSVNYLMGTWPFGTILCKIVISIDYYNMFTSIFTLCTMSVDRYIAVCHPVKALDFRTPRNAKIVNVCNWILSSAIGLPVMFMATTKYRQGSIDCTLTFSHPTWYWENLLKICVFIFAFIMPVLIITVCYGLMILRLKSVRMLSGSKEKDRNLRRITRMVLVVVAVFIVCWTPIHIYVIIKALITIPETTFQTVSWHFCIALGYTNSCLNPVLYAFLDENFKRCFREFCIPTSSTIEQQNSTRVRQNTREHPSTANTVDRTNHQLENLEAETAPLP

For `CC1CN(CC(O)COC2CCCCC2)CC(C)O1` (stereo not drawn) [Compound A0017], the “[35S]GTPγS binding to Gαo, FLNA-binding compound as agonist 0.1 μM” value (shortened to “[35S]GTPγS binding to Gαo … as agonist 0.1 μM”) was 161.9%, the “[35S]GTPγS binding to Gαo, FLNA-binding compound as agonist 1 μM + BFNA” value (“[35S]GTPγS binding … as agonist 1 μM + BFNA” for short) was 65.2% and the “[35S]GTPγS binding to Gαo, FLNA-binding compound as agonist 1 μM” value was 246.0%.

For `CC1CCC(C(C)C)C(OCC(O)CN2CCN(CCc3ccccc3)CC2)C1` (stereo not drawn) [Compound A0020], the “[35S]GTPγS binding to Gαo … as agonist 0.1 μM” value was 168.6%, the “[35S]GTPγS binding … as agonist 1 μM + BFNA” value was 67.4% and the “[35S]GTPγS binding to Gαo, FLNA-binding compound as agonist 1 μM” value was 217.4%.

`CC1CCC(C)C(OCC(O)CN2CC(C)OC(C)C2)C1` (stereo not drawn) [Compound A0022] was tested, and the “[35S]GTPγS binding to Gαo … as agonist 0.1 μM” value was 154.1%, the “[35S]GTPγS binding … as agonist 1 μM + BFNA” value was 28.0% and the “[35S]GTPγS binding to Gαo, FLNA-binding compound as agonist 1 μM” value was 216.0%.

`CC1CN(CC(O)COc2ccccc2)CC(C)O1` (stereo not drawn) [Compound A0025] was tested, and the “[35S]GTPγS binding to Gαo … as agonist 0.1 μM” value was 58.6%, the “[35S]GTPγS binding … as agonist 1 μM + BFNA” value was 52.2% and the “[35S]GTPγS binding to Gαo, FLNA-binding compound as agonist 1 μM” value was 138.7%.

`CC1CCC(C(C)C)C(OCC(O)CN2CCN(CCCN3CCOCC3)CC2)C1` (stereo not drawn) [Compound A0026] was tested, and the “[35S]GTPγS binding to Gαo … as agonist 0.1 μM” value was 140.7%, the “[35S]GTPγS binding … as agonist 1 μM + BFNA” value was 120.8% and the “[35S]GTPγS binding to Gαo, FLNA-binding compound as agonist 1 μM” value was 179.8%.

For `Cc1ccc(C(C)C)c(OCC(O)CN2CC(C)OC(C)C2)c1` (stereo not drawn) [Compound A0028], the “[35S]GTPγS binding to Gαo … as agonist 0.1 μM” value was 143.6%, the “[35S]GTPγS binding … as agonist 1 μM + BFNA” value was 116.7% and the “[35S]GTPγS binding to Gαo, FLNA-binding compound as agonist 1 μM” value was 187.7%.

For `Cc1cccc(OCC(O)CN2CC(C)OC(C)C2)c1` (stereo not drawn) [Compound A0030], the “[35S]GTPγS binding to Gαo … as agonist 0.1 μM” value was 133.4%, the “[35S]GTPγS binding … as agonist 1 μM + BFNA” value was 165.2% and the “[35S]GTPγS binding to Gαo, FLNA-binding compound as agonist 1 μM” value was 287.8%.

In the case of `CC1CCC(C(C)C)C(OCC(O)CN2CCN(CCN3CCCCC3)CC2)C1` (stereo not drawn) [Compound A0031], the “[35S]GTPγS binding to Gαo … as agonist 0.1 μM” value is reported as 178.2%, the “[35S]GTPγS binding … as agonist 1 μM + BFNA” value is reported as 150.9% and the “[35S]GTPγS binding to Gαo, FLNA-binding compound as agonist 1 μM” value is reported as 297.0%.

In the case of `CC1CCC(C(C)C)C(OCC(O)CN2CC(C)OC(C)C2)C1` (stereo not drawn) [Compound A0032-1], the “[35S]GTPγS binding to Gαo … as agonist 0.1 μM” value is reported as 187.4%, the “[35S]GTPγS binding … as agonist 1 μM + BFNA” value is reported as 224.5% and the “[35S]GTPγS binding to Gαo, FLNA-binding compound as agonist 1 μM” value is reported as 324.5%. For the same molecule, the “% DAMGO + BFNA” value was 303.8%, the “% DAMGO (0.1 μM)” value was 95.5% and the “% DAMGO (1 μM)” value was 117.6%.

With `CCN(CC)CC(O)COC1CC(C)CCC1C(C)C` (stereo not drawn) [Compound A0032] the “[35S]GTPγS binding to Gαo … as agonist 0.1 μM” value was 226.9%, the “[35S]GTPγS binding … as agonist 1 μM + BFNA” value was 133.0% and the “[35S]GTPγS binding to Gαo, FLNA-binding compound as agonist 1 μM” value was 257.8%.

`CC1CCC(C(C)C)C(OCC(CN2CC(C)OC(C)C2)NCc2ccccc2)C1` (stereo not drawn) [Compound A0033] was tested, and the “[35S]GTPγS binding to Gαo … as agonist 0.1 μM” value was 155.8%, the “[35S]GTPγS binding … as agonist 1 μM + BFNA” value was 118.2% and the “[35S]GTPγS binding to Gαo, FLNA-binding compound as agonist 1 μM” value was 254.6%.

For `CC1CCC(C(C)C)C(OCC(O)CN2CCCC2=O)C1` (stereo not drawn) [Compound A0035], the “[35S]GTPγS binding to Gαo … as agonist 0.1 μM” value was 120.6%, the “[35S]GTPγS binding … as agonist 1 μM + BFNA” value was 88.6% and the “[35S]GTPγS binding to Gαo, FLNA-binding compound as agonist 1 μM” value was 158.8%.

With `CC1CCC(C(C)C)C(OCC(O)CN2CCCCC2=O)C1` (stereo not drawn) [Compound A0036] the “[35S]GTPγS binding to Gαo … as agonist 0.1 μM” value was 144.1%, the “[35S]GTPγS binding … as agonist 1 μM + BFNA” value was 63.2% and the “[35S]GTPγS binding to Gαo, FLNA-binding compound as agonist 1 μM” value was 167.5%.

In the case of `CC1CCC(C(C)C)C(OCC(O)CN(C(C)C)C(C)C)C1` (stereo not drawn) [Compound A0037], the “[35S]GTPγS binding to Gαo … as agonist 0.1 μM” value is reported as 177.9%, the “[35S]GTPγS binding … as agonist 1 μM + BFNA” value is reported as 104.6% and the “[35S]GTPγS binding to Gαo, FLNA-binding compound as agonist 1 μM” value is reported as 236.2%. For the same molecule, the “% DAMGO + BFNA” value was 141.5%, the “% DAMGO (0.1 μM)” value was 90.7% and the “% DAMGO (1 μM)” value was 85.6%.

`CC1CCC(C(C)C)C(OCC(O)Cn2cccc2)C1` (stereo not drawn) [Compound A0038] was tested, and the “[35S]GTPγS binding to Gαo … as agonist 0.1 μM” value was 176.7%, the “[35S]GTPγS binding … as agonist 1 μM + BFNA” value was 107.0% and the “[35S]GTPγS binding to Gαo, FLNA-binding compound as agonist 1 μM” value was 234.5%.

Reference: patent US20100279997A1, “ANALGESIC THAT BINDS FILAMIN A” (priority 2009, published 2010)
